{"source": "patent US11666645B2", "about": "“CD200 inhibitors and methods of use thereof” (REGENTS OF THE UNIVERSITY OF MINNESOTA, priority 2015, dated 2023)", "key": {"[1]": {"system": "Human immature dendritic cells", "test": "Human immature dendritic cells pulsed with P1 peptide or alanine-substituted versions, cytokine production", "type": "cell-based", "details": "human CD11b-derived immature dendritic cells (GM-CSF, IL4), supernatants", "description": "FIGS. 13A-13B. Human CD11b cells were isolated. Purified CD11b cells were differentiated to immature dendritic cells using GM-CSF and IL4. Cells were pulsed with P1, P2, P3 and P4 CD200 inhibitors (see Table 2). Supernatants were analyzed for FIG. 13A) cytokine or FIG. 13B) chemokine production.\nFIG. 16. Human CD11b cells were isolated and the purified CD11b cells were differentiated to immature dendritic cells using GM-CSF and IL4. Cells were pulsed with human P1 peptide, or a mutated version thereof comprising an alanine substitution (denoted by P1 and the amino acid substitution and position; e.g., P1A1, P1A2, P1A3, P1A4, P1A5, P1A6, etc.) (see, Table 2). Supernatants were analyzed for cytokine production."}, "[2]": {"system": "splenocytes + OT-1 T cells", "test": "Splenocytes pulsed with OVA + inhibitor, OT-1 T cells added, cytokine production by flow cytometric bead array", "type": "cell-based, mouse", "details": "splenocytes pulsed 24 hours with OVA+inhibitor, 48 hours with OT-1 T cells", "description": "FIGS. 11A-11B. Splenocytes were pulsed with OVA+an inhibitor peptide and incubated for 24 h. Following incubation, cells were washed, purified OT1 were added to wells and incubated for an additional 48 hours then analyzed for FIG. 11A) TNFa and IL-6 production; and FIG. 11B) IL-2 and IL-17 production. Error bars indicate +/−SEM (n=4/group; *P<0.05; ** P<0.01).\nWe hypothesize that the two different human CD200 inhibitor peptides (peptide 1=hP1 & peptide 2=hP2, table 2) are hitting different activation receptors on dendritic cells, although only one has been identified. […] We want to generate the immune response most beneficial for our patients. These conclusions were supported by experiments where splenocytes were pulsed with OVA+selected CD200 inhibitors (6061, 6069, 4004, 4006, 4013) for 24 hours. The splenocytes were then washed and cultured for 48 hours with the addition of OT-1 T cells. The cultures were then assessed for cytokine production using a flow cytometric bead array."}, "PPIA": {"system": "PPIA", "test": "PPIA production in monocytes with CD200 inhibitor", "type": "cell-based", "details": "peptide binds the CD200 activating receptor", "excerpt": "FIGS. 18A-18E. Experimental Model. CD200 is solubilized from the tumor or endothelial interacting on its receptor (CD200R). This CD200/CD200R interaction induces the upregulation of PPIA through the MYC pathway decreasing TNF alpha and IL2 production needed for an immune response (FIG. 18A).\nThese antagonist have been reported to reverse the differentiation to as myeloid-derived suppressor cells following interaction with soluble CD200 (FIG. 18C) (Moertel et al., J Immunother Can; 2(1):46) and in vivo (FIG. 23). The mechanism of […] protein inhibition has been determined through the upregulation of an immunosuppressive protein PPIA (FIGS. 18A-18E) which is inhabited with the use of the CD200 inhibitor P1A12."}, "glioma-derived exosomes": {"system": "glioma-derived exosomes", "test": "Vaccination of non-tumor bearing mice with OVA + glioma-derived exosomes +/- inhibitor", "type": "in vivo, mouse", "details": "OVA+glioma-derived exosomes+antagonist", "description": "(§1) FIGS. 12A-12C. CD200 inhibitor reverses the suppressive effects of the tumor environment. Tumor and non-tumor bearing mice were vaccinated with OVA+Poly:ICLC +/− the CD200 inhibitor 6059 and analyzed for FIG. 12A) SIINFEKL/Kb^+CD8^+ T cell expansion (“SIINFEKL” disclosed as SEQ ID NO: 18). FIG. 12B) Lymphocytes were harvested and stimulated with SIINFEKL peptide (SEQ ID NO: 18). Supernatants were analyzed for TNFα and IFNγ secretion. FIG. 12C) The CD200 inhibitor 6059 was added to OVA+exosomes. Error bars indicate +/−SEM (n=4/group; *P<0.05; by t-test).\n(§2) These experiments support the hypothesis that exosomes express the CD200 protein thereby inhibiting the ability to prime a T cell response in the draining lymph nodes of glioma bearing mice. Other CD200 inhibitors were similarly evaluated (FIGS. 3A-3B, 9A-9B and 24A-24B)."}, "GL261 tumor bearing mice [3]": {"system": "GL261 tumor bearing mice", "test": "GL261 glioma model, vaccination with tumor lysate +/- CD200 inhibitor, tumor growth and survival", "procedure": "FIG. 5B) Mice were imaged weekly for tumor growth. The following groups were studied: saline (1), tumor lysate (2), and tumor lysate+CD200 inhibitor (6059) (3). FIG. 5C) Percent survival post inoculation for saline (1), tumor lysate (2), and tumor lysate+CD200 inhibitor (3) groups.\nIn vivo survival study. […] All vaccinations were administered in the back of the neck in tumor bearing mice."}, "tumor bearing mice [4]": {"system": "tumor bearing mice", "test": "Recall response: lymphocytes of vaccinated tumor bearing mice restimulated with OVA/SIINFEKL, cytokine release", "type": "in vivo, mouse", "details": "lymphocytes from cervical lymph nodes of vaccinated tumor bearing mice restimulated, supernatant after 48 hrs", "excerpt": "FIGS. 4A-4B. Tumor bearing or non-tumor bearing mice were vaccinated on day 2 and 8 with an agonist or CD200 inhibitor only, and on days 3-6 and 10 with OVA+Poly:ICLC +/− the CD200 inhibitor 6059. On day 10, were harvested and stimulated with OVA protein to measure a recall response via cytokine release. FIG. 4A) TNF alpha (PG/ML) levels from tumor bearing mice. FIG. 4B) IFN gamma (PG/ML) levels in tumor bearing mice.\nas §1, §2"}, "tumor bearing mice [5]": {"system": "tumor bearing mice", "test": "Prime-boost OVA vaccination of tumor bearing mice, SIINFEKL specific CD8+ T cell expansion by flow cytometry", "type": "in vivo, mouse", "details": "tumor bearing mice vaccinated with OVA+Poly:ICLC +/- inhibitor, whole blood", "description": "FIGS. 3A-3B. FIG. 3A) Vaccination scheme. FIG. 3B) Tumor bearing or non-tumor bearing mice were vaccinated on day 2 and 8 with an agonist (4012) or CD200 inhibitor (6059) only, and on days 3-6 and […] with OVA+Poly:ICLC +/− the agonist (4012) or CD200 inhibitor (6059). B) Mice were bled on day 10, whole blood was stained with an anti-CD8 and SIINFEKL specific detramer (SEQ ID NO: 18), lysed and analyzed by flow cytometry.\nas §1, §2"}, "GL261 tumor bearing mice [6]": {"system": "GL261 tumor bearing mice", "test": "GL261 glioma model, inhibitor inoculated into the tumor site in the brain, then tumor lysate + inhibitor", "type": "in vivo, mouse", "details": "10 μg inhibitor in the brain at tumor coordinates on day 2, then weekly tumor lysate + inhibitor", "description": "Tumor-bearing mice were inoculated in the brain with 10 μg of the inhibitor 6059 at the same coordinates at which the tumor was injected two days previously. This was followed by weekly injections of tumor lysate+inhibitor (FIGS. 5A-5B)."}}, "note": "“Also recorded” adds a separate entry of the source.", "data": [{"sequence": "SQKVSATACLTLY [hP1A6]", "values": [{"measurement": "Cytokine production (response) vs human P1 peptide", "setting": "[1]", "result": "enhanced TNF-α and IL-β production"}, {"measurement": "Cytokine production (response) vs human P1 peptide", "setting": "[1]; listed as P1A6", "result": "significantly enhanced response"}]}, {"sequence": "SQKVSGTACLTLY [Inhibitor 4006, P3 in b288]", "values": [{"measurement": "Cytokine profile (TNFa, IL-6, IL-2, IL-17)", "setting": "[2]", "result": "different cytokine profiles"}]}, {"sequence": "VTWQKKKAVSPAN [Inhibitor P1A12, P1 in b288]", "values": [{"measurement": "Production of PPIA", "setting": "PPIA", "result": "inhibits the production of PPIA"}]}, {"sequence": "NTIGDGGCY [Inhibitor 6059]", "values": [{"measurement": "Suppression induced by exosomes", "setting": "glioma-derived exosomes", "result": "partially reversed the suppression induced by exosomes"}, {"measurement": "Survival benefit", "setting": "GL261 tumor bearing mice [3]; GL261 mice vaccinated weekly with tumor lysates + inhibitor vs saline or tumor lysates", "result": "increased survival benefit"}, {"measurement": "Tumor growth", "setting": "GL261 tumor bearing mice [3]; GL261 mice, tumor lysate (65 μg) + inhibitor (50 μg), imaged weekly, vs saline or tumor lysate", "result": "slowed tumor growth"}, {"measurement": "Enhancement of survival", "setting": "GL261 tumor bearing mice [3]; GL261 mice, tumor lysate (65 μg) + inhibitor (50 μg), vs saline or tumor lysate", "result": 30, "unit": "%"}, {"measurement": "Recall response via cytokine release (TNF alpha, IFN gamma): effect on tumor induced suppression", "setting": "tumor bearing mice [4]", "result": "modulate/reverse glioma-induced suppression; also recorded: reversed the suppressive effects of the tumor microenvironment"}, {"measurement": "SIINFEKL specific CD8+ T cell expansion: effect on tumor induced suppression", "setting": "tumor bearing mice [5]", "result": "reversed tumor induced suppression; also recorded: reversed the suppressive effects of the tumor microenvironment; also recorded: reversed the suppressive effects in tumor-bearing mice"}, {"measurement": "Tumor growth after inhibitor into the tumor site in the CNS", "setting": "GL261 tumor bearing mice [6]", "result": "Tumor growth was delayed"}]}, {"sequence": "TASLRCSLKTSQE [Inhibitor 4004]", "values": [{"measurement": "Cytokine profile (TNFa, IL-6, IL-2, IL-17)", "setting": "[2]", "result": "different cytokine profiles"}]}]}
